Test results from ChEMBL document CHEMBL2346642, “Antioxidant and antiproliferative activity of glycosides obtained by biotransformation of xanthohumol” (Bioorg Med Chem Lett, 2013).
pIC50: −log10 of the molar value.

Tests used:
PC-3 = test: Antiproliferative activity against human PC3 cells after 72 hrs by SRB assay; assay type: functional, cell-based; conditions: for pIC50: Homo sapiens, PC-3, 72 h, read-out: IC50
MCF7 = test: Antiproliferative activity against human MCF7 cells after 72 hrs by SRB assay; assay type: functional, cell-based; conditions: MCF7, 72 h
[1] = test system: Radical scavenging activity; test: Antioxidant activity assessed as DPPH radical scavenging activity by UV-vis spectrophotometry analysis; assay type: functional
HT-29 = test: Antiproliferative activity against human HT-29 cells after 72 hrs by SRB assay; assay type: functional, cell-based; conditions: for pIC50: Homo sapiens, HT-29, 72 h, read-out: IC50

Structure (SMILES)	pIC50 (PC-3)	pIC50 (MCF7)	pIC50 [1]	pIC50 (HT-29)	IC50 (PC-3; pc-3)	IC50 (HT-29; ht-29)
COc1cc(O[C@@H]2O[C@H](CO)[C@@H](OC)[C@H](O)[C@H]2O)c(CC=C(C)C)c(O)c1C(=O)/C=C/c1ccc(O)cc1	4.32	4.70	5.04	4.29		
COc1cc(O)c(CC=C(C)C)c(O)c1C(=O)/C=C/c1ccc(O)cc1 [XANTHOHUMOL]			5.70			
COc1cc(O[C@@H]2O[C@H](CO)[C@@H](O)[C@H](O)[C@H]2O)c(CC=C(C)C)c(O)c1C(=O)/C=C/c1ccc(O)cc1 [XANTHOHUMOL-4'-O-BETA-D-GLUCOPYRANOSIDE]	4.24	4.29	6.11	4.20		

Now from value to compound:

pIC50 (PC-3)	pIC50 (MCF7)	pIC50 [1]	pIC50 (HT-29)	IC50 (PC-3; pc-3)	IC50 (HT-29; ht-29)	Structure (SMILES)
		6.28				O=C1O[C@H]([C@@H](O)CO)C(O)=C1O [ASCORBIC ACID]
	3.83	5.21		Not Active	Not Active	COc1cc(O[C@@H]2O[C@H](CO)[C@@H](O)[C@H](O)[C@H]2O)c(CC=C(C)C)c2c1C(=O)C[C@@H](c1ccc(O)cc1)O2
